Laboratory results as given in patent US20090311237A1, “Combination therapy using a soluble hyaluronidase and a bisphosphonate” (priority 2008, published 2009).
Read-outs that look alike come from different tables or passages of the source.

Test: Pharmacokinetics of ZA in pig serum after IV or SC infusion with or without rHuPH20 (LC-MS-MS, non-compartmental analysis)
Type: in vivo
Settings: female, Yorkshire, pig, serum, subcutaneous, […], ZA […], read-out: Zoledronic Acid Serum Concentration
Method: A pharmacokinetic study of zoledronic acid (ZA) co-administered with rHuPH20 in female Yorkshire swines was conducted. The primary objective of the study was to determine the bioavailability of zoledronic acid dosed via subcutaneous (SC) co-administration with human recombinant hyaluronidase PH20 (rHuPH20) and to compare the overall exposure to an equivalent IV dose.
Animals in Study Group 1 were dosed with 0.15 mg/kg ZA given via a 20-minute IV infusion. Animals in Study Groups 2 and 3 were dosed subcutaneously (SC) with 0.15 mg/kg ZA without and with rHuPH20, respectively, in different SC delivery volumes.
Following ZA dose administration, serial blood samples were collected via vascular access ports (VAPs) for serum preparation and determination of ZA concentrations. Blood collection times were at 1, 3, 5, 10, 15, 20, 30, 45, and 60 minutes, and at 1.5, 2, 3, 4, 6, 8, 10, 24, 48, and 72 hours post dose. Urine samples were also collected to compare excretion characteristics between IV and SC routes of administration. Collection times for urine were at 15 minutes before dosing (−15 min.), continuously from dose initiation to 2 hours post dose, and at 4, 6, 8, and 24 hours post dose thereafter.
Serum concentration of ZA was determined using a qualified LC-MS-MS assay after derivatization with diazomethane (Zhu, L S et al. (2006) Rapid Commun. Mass Spectrom. 20: 3421-3426; “Qualification Data of An LC-MS/MS Method for the Determination of Zoledronate in Porcine Serum”, MDS Pharma Services Study No. AA43671-01, Report Date 14 Sep. 2007). The assay range was from 2.0 to 400 ng/mL with a lower limit of quantitation (LLOQ) at 2.0 ng/mL. Urine concentration of ZA was determined by a similar well qualified LC-MS-MS method (“Qualification Data of An LC-MS/MS Method for the Determination of Zoledronate in Porcine Urine”, MDS Pharma Services Study No. AA43671-02, Report Date 14 Sep. 2007) with an assay LLOQ at 10 ng/mL.
Pharmacokinetic (PK) analyses of ZA serum concentration versus time data were conducted using WinNonlin v5.1 (Pharsight, Mountain View, Calif.). Non-compartmental analysis was used for derivation of primary and secondary pharmacokinetic (PK) parameters. AUC, Cmax, and Tmax were compared between dose routes, between co-administration with rHuPH20, and with dose of rHuPH20.

## O=P(O)(O)C(O)(Cn1ccnc1)P(=O)(O)O [ZA, 1-hydroxy-2-(1H-imidazol-1-yl)ethylidene-1,1-bisphosphonic acid]
Time 1 h, pig ID 70, Study Group 2, SC, 10 mL, 1.6 min, rHuPH20 0 U/mL
  concentration at 1 h: 101 ng/mL
Time 2 h, pig ID 59, Study Group 2, SC, 100 mL, 16 min, rHuPH20 0 U/mL
  concentration at 2 h: 22.9 ng/mL
Time 2 h, pig ID 60, Study Group 2, SC, 100 mL, 16 min, rHuPH20 0 U/mL
  concentration at 2 h: 75.8 ng/mL
Time 2 h, pig ID 62, Study Group 2, SC, 50 mL, 8 min, rHuPH20 0 U/mL
  concentration at 2 h: 28.4 ng/mL
Time 2 h, pig ID 69, Study Group 2, SC, 25 mL, 4 min, rHuPH20 0 U/mL
  concentration at 2 h: 31.8 ng/mL
Time 2 h, pig ID 70, Study Group 2, SC, 10 mL, 1.6 min, rHuPH20 0 U/mL
  concentration at 2 h: 37.7 ng/mL
Time 3 h, pig ID 59, Study Group 2, SC, 100 mL, 16 min, rHuPH20 0 U/mL
  concentration at 3 h: 13.3 ng/mL
Time 3 h, pig ID 60, Study Group 2, SC, 100 mL, 16 min, rHuPH20 0 U/mL
  concentration at 3 h: 27.5 ng/mL
Time 3 h, pig ID 62, Study Group 2, SC, 50 mL, 8 min, rHuPH20 0 U/mL
  concentration at 3 h: 13.5 ng/mL
Time 3 h, pig ID 69, Study Group 2, SC, 25 mL, 4 min, rHuPH20 0 U/mL
  concentration at 3 h: 20.5 ng/mL
Time 3 h, pig ID 70, Study Group 2, SC, 10 mL, 1.6 min, rHuPH20 0 U/mL
  concentration at 3 h: 22.2 ng/mL
Time 4 h, pig ID 59, Study Group 2, SC, 100 mL, 16 min, rHuPH20 0 U/mL
  concentration at 4 h: 6.48 ng/mL
Time 4 h, pig ID 60, Study Group 2, SC, 100 mL, 16 min, rHuPH20 0 U/mL
  concentration at 4 h: 9.03 ng/mL
Time 4 h, pig ID 62, Study Group 2, SC, 50 mL, 8 min, rHuPH20 0 U/mL
  concentration at 4 h: 4.74 ng/mL
Time 4 h, pig ID 69, Study Group 2, SC, 25 mL, 4 min, rHuPH20 0 U/mL
  concentration at 4 h: 8.11 ng/mL
Time 4 h, pig ID 70, Study Group 2, SC, 10 mL, 1.6 min, rHuPH20 0 U/mL
  concentration at 4 h: 9.47 ng/mL
Time 6 h, pig ID 60, Study Group 2, SC, 100 mL, 16 min, rHuPH20 0 U/mL
  concentration at 6 h: 3.6 ng/mL
Time 6 h, pig ID 62, Study Group 2, SC, 50 mL, 8 min, rHuPH20 0 U/mL
  concentration at 6 h: 2.99 ng/mL
Time 6 h, pig ID 69, Study Group 2, SC, 25 mL, 4 min, rHuPH20 0 U/mL
  concentration at 6 h: 2.92 ng/mL
Time 6 h, pig ID 70, Study Group 2, SC, 10 mL, 1.6 min, rHuPH20 0 U/mL
  concentration at 6 h: 4.09 ng/mL
Time 8 h, pig ID 70, Study Group 2, SC, 10 mL, 1.6 min, rHuPH20 0 U/mL
  concentration at 8 h: 2.07 ng/mL
Pig 56, Study Group 3, SC, rHuPH20 10000 U/mL, 25 mL over 4 min, time […]
  concentration at […]: 29.2 ng/mL
Pig 58, Study Group 3, SC, rHuPH20 10000 U/mL, 50 mL over 8 min, time 2 h
  concentration at 2 h: 40.1 ng/mL
Pig 58, Study Group 3, SC, rHuPH20 10000 U/mL, 50 mL over 8 min, time 3 h
  concentration at 3 h: 10.8 ng/mL
Pig 58, Study Group 3, SC, rHuPH20 10000 U/mL, 50 mL over 8 min, time 4 h
  concentration at 4 h: 8.27 ng/mL
Pig 58, Study Group 3, SC, rHuPH20 10000 U/mL, 50 mL over 8 min, time 6 h
  concentration at 6 h: 2.65 ng/mL
Pig 64, Study Group 3, SC, rHuPH20 10000 U/mL, 100 mL over 16 min, time 0.05 h
  concentration at 0.05 h: 57 ng/mL
Pig 64, Study Group 3, SC, rHuPH20 10000 U/mL, 100 mL over 16 min, time 0.333 h
  concentration at 0.333 h: 253 ng/mL
Pig 64, Study Group 3, SC, rHuPH20 10000 U/mL, 100 mL over 16 min, time 0.5 h
  concentration at 0.5 h: 197 ng/mL
Pig 64, Study Group 3, SC, rHuPH20 10000 U/mL, 100 mL over 16 min, time 1 h
  concentration at 1 h: 101 ng/mL
Pig 64, Study Group 3, SC, rHuPH20 10000 U/mL, 100 mL over 16 min, time 2 h
  concentration at 2 h: 50.9 ng/mL
Pig 64, Study Group 3, SC, rHuPH20 10000 U/mL, 100 mL over 16 min, time 3 h
  concentration at 3 h: 29.8 ng/mL
